Measured values from patent US10828269B2, “Reducing muscle atrophy by administering astaxanthin” (FUJI CHEMICAL INDUSTRIES CO., LTD., priority 2004, dated 2020).

Experiments:
[1] = tested on: gastrocnemius of Wistar male rats; test: Muscle atrophy test (sciatic nerve of left leg cut); assay type: in vivo, rat
Method: 9-week-old Wistar male rats were bred each being fed a normal diet for breeding and water ad libitum under the conditions with a 12 hours light-dark cycle at a temperature of 21° C. to 25° C. and were accustomed to the environment in advance. The rats were divided into two groups of 10 rats per group, and each group was bred with a normal diet (control group) or a diet to which astaxanthin was added (Ax group) fed ad libitum. The diet to which astaxanthin was added was prepared by mixing free astaxanthin at 0.02%. At one week after the start of ingestion of astaxanthin-added diet, the sciatic nerve of the left leg was cut and muscle of the left lower extremity was inactivated. After breeding for further two weeks, rats were killed, triceps surae (soleus muscle, gastrocnemius, and plantaris) were extracted from left leg (limb in which nerves were removed) and right leg (control limb), respectively, and the wet weight of the gastrocnemius was measured. The atrophy rate was calculated using the difference of the wet weight of the gastrocnemius of left lower limb to the wet weight of the gastrocnemius of right lower limb with respect to each group Table 7. […]

granulin = test: GeneChip gene expression in renal glomerulus; assay type: in vivo, mouse; conditions: probe 1438629_x_at, 0.02% in diet, 12 weeks
Method: (§1) Type II diabetic female db/db mice and non-diabetic db/m were purchased from Clea Japan, Inc. Mice were bred under the conditions with a 12 hours light-dark cycle at a temperature of 21° C. to 25° C. For acclimation, mice were fed CE-2 (Clea Japan, Inc.) with free access to water for one week. The mice were divided into three groups each consisting of 8 mice (non-diabetic db/m, diabetic db/db, and astaxanthin-administered db/db) and each group was bred with feed ad libitum. Mice in astaxanthin-administered group were fed a diet in which 0.02% astaxanthin in terms of free astaxanthin was compounded with CE-2. Each group was bred for 12 weeks, and body weight, blood glucose levels, 8-OHdG levels in urine, albumin levels in urine, and kidney histopathology, were measured. Astaxanthin used here was AstaReal (registered trademark, Fuji Chemical Industry Co., Ltd.) 50F, which is oil composed of astaxanthin fatty acid ester and triglycerides and contains 5% astaxanthin in terms of free astaxanthin.
(§2) After the period of test breeding, kidney was removed and frozen at −80° C. Using an LM200 system (Olympus Corporation), the renal glomerulus was cut from kidney of mice while keeping low temperature. tRNA of renal glomerulus was extracted using tRNA extraction regent “Isogen” (produced by Nippon Gene Co., Ltd.), and then preparation of cRNA and hybridization were performed according to the Affymetrix GeneChip Eukaryotic Small Sample Target Labeling Assay Ver. II.
(§3) (1) Synthesis of first strand cDNA: 1 μL of total RNA solution and 1 of 5 μM T7-Oligo(dT) primer were mixed, heated at 70° C. for 6 minutes, and then cooled at 4° C. for 2 minutes. 3 μL of RT_Premix_1 (1.5 μL DEPC-treated water, 4 μL 5× First strand Buffer, 2 μL DTT (0.1 M), 1.5 μL dNTP Mix (10 mM), 1 μL RNase inhibitor (40 U/μL), and 2 μL Super-Script II (200 U/μL)) was added and reverse transcribed at 42° C. for 1 hour. The sample was heated at 70° C. for 10 minutes to inactivate Super Script II, and then cooled to 4° C. (2) Synthesis of second strand cDNA: 32.5 μl of SS_Premix_1 (91 μL DEPC-treated water, 30 μL 5× Second Strand Buffer, 3 μL dNTP (10 mM), 1 μL E. coli DNA ligase (10 U/μL); 4 μL E. coli DNA polymerase (10 U/μL), and 1 μL RNase H (2 U/μL)) was added to the first strand cDNA solution and allowed to react for 2 hours at 16° C. (3) To the resulting cDNA, was added 1 μL T4 DNA polymerase (5 U/μl) and allowed to react for 10 minutes at 16° C., and purified by ethanol precipitation. (4) In vitro transcription: To the dried double-stranded cDNA pellet, was added 10 μL of reagents (4 μL DEPC-treated water, 4 μL premixed NTPs, 1 μL 10× reaction buffer, and 1 μL 10× enzyme mix), and allowed to react at 37° C. in a water bath for 6 hours. (5) First cycle cRNA was purified using the RNeasy Mini Kit in accordance with the protocol in the handbook (QIAGEN). (6) Subsequently, for the amplification and labeling, the cRNA sample was mixed with random primers (0.2 μg/μL), treated at 70° C. for 10 minutes, cooled on ice for 2 minutes, 5 μL of RT_Premix_2 (5× First Strand Buffer, DTT (0.1 M), dNTP mix (10 mM), RNase inhibitor (40 U/μL), and SuperScript II (200 U/μL) was added, and allowed to react at 42° C. for 1 hour. (7) Next, Second Sstrand cDNA synthesis was carried out by adding 5 μM T7-Oligo(dT) promoter treating at 70° C. for 6 minutes, cooling at 4° C., and adding 62 μL of SS_Premix_2 (43 μL it DEPC-treated water, 15 μL 5× Second Strand Buffer, 1.5 μL dNTP mix (10 mM), and 2 μL E. coli DNA polymerase (10 U/μL)). (8) To the resulting cDNA, was treated added 1 μL of T4 DNA polymerase (5 U/μL), allowed to react at 16° C. for 10 minutes, and purified by ethanol precipitation. […]

[2] = tested on: MAD homolog 4 (Dorosophia); test: GeneChip gene expression in renal glomerulus; assay type: in vivo, mouse; conditions: probe 1422486_a_at, 0.02% in diet, 12 weeks
Method: as §1, §2, §3

erythropoietin receptor = test: GeneChip gene expression in renal glomerulus; assay type: in vivo, mouse; conditions: probe 1423344_at, 0.02% in diet, 12 weeks
Method: as §1, §2, §3

catenin beta = test: GeneChip gene expression in renal glomerulus; assay type: in vivo, mouse; conditions: probe 1420811_a_at, 0.02% in diet, 12 weeks
Method: as §1, §2, §3

[3] = tested on: collagen, type XXV, alpha 1; test: GeneChip gene expression in renal glomerulus; assay type: in vivo, mouse; conditions: probe 1438655_a_at, 0.02% in diet, 12 weeks
Method: as §1, §2, §3

[4] = tested on: Type II diabetic female db/db mice; test: Onset of diabetic complication in db/db mice (urine albumin, urine 8-OHdG, blood glucose, kidney histopathology); assay type: in vivo, mouse
Method: as §1
FIG. 1 is a photomicrograph of glomerulus.

[5] = Takahashi Jiro et al, Rinsho Iyaku 2004; cited from earlier work

With `CC1=C(/C=C/C(C)=C/C=C/C(C)=C/C=C/C=C(C)/C=C/C=C(C)/C=C/C2=C(C)C(=O)C(O)CC2(C)C)C(C)(C)CC(O)C1=O` (stereo not drawn) [astaxanthin, 3,3′-dihydroxy-β,β-carotene-4,4′-dione] the “Gastrocnemius Atrophy rate” value ([1]; difference of wet weight of left to right gastrocnemius, Ax group) was 37.7%, the “atrophy rate compared with the control group” value ([1]; risk rate 5% or less) was “smaller value of atrophy rate” and the “gene expression relative ratio db/db(Ax):db/db” value (granulin) was 0.19. For the same molecule, the “gene expression relative ratio db/db(Ax):db/m” value (granulin) was 3.03, the “gene expression relative ratio db/db(Ax):db/db” value [2] was 1.00 and the “gene expression relative ratio db/db(Ax):db/m” value [2] was 27.86. The “gene expression relative ratio db/db(Ax):db/db” value (erythropoietin receptor) was 2.30, the “gene expression relative ratio db/db(Ax):db/m” value (erythropoietin receptor) was 0.71 and the “gene expression relative ratio db/db(Ax):db/db” value (catenin beta) was 0.38. The “gene expression relative ratio db/db(Ax):db/m” value (catenin beta) was 12.13, the “gene expression intensity ratio db/db(Ax):db/db” value [3] was 0.19 and the “gene expression intensity ratio db/db(Ax):db/m” value [3] was 0.87. For the same molecule, the “Albumin level in urine” value ([4]; at the end (12 weeks), db/db mice, diet with 0.02% astaxanthin (AstaReal 50F)) was 77.8 ± 44.6 mg/dL, the “Albumin level in urine” value ([4]; at the start, astaxanthin-administered db/db mice) was 46.2 ± 1.5 mg/dL and the blood glucose levels ([4]; diabetic db/db mice, diet with 0.02% astaxanthin, 12 weeks) was “reduces blood glucose levels”. For the same molecule, the “enlargement of glomerular mesangium (microscope)” value ([4]; kidney of db/db(Ax) vs db/db mice) was “apparently moderated” and the mutagenicity [5] was “has not been observed having any mutagenicity”.
